How the values were obtained:
ROCK 2 (Rho kinase 2) = ROCK 2 (Rho kinase 2) (Homo sapiens, UniProt O75116); assay: In vitro inhibitory activity assay (ADP-Glo), Rho kinase 2; format: biochemical; conditions: Ki by Cheng-Prusoff from IC50; 10 μM ATP, 25° C.
Procedure: (§1) In Vitro Inhibitory Activity Assay Description
(§2) The effectiveness of compounds of the present invention to inhibit Rho kinase activity can be determined in a 10 μl assay containing 40 mM Tris pH7.5, 20 mM MgCl2 0.1 mg/ml BSA, 50 μM DTT and 2.5 μM peptide substrate (Myelin Basic Protein) using an ADP-Glo kit (Promega). Compounds were dissolved in DMSO such that the final concentration of DMSO was 1% in the assay. All reactions/incubations are performed at 25° C. Compound (2 μl) and either Rho kinase 1 or 2 (4 μl) were mixed and incubated for 30 mins. Reactions were initiated by addition of ATP (4 μl) such that the final concentration of ATP in the assay was 10 μM. After a 1 hour incubation 10 μl of ADP-Glo Reagent was added and after a further 45 minute incubation 20 μl of Kinase Detection Buffer was added and the mixture incubated for a further 30 minutes. The luminescent signal was measured on a luminometer. […] Compounds were tested in dose-response format and the inhibition of kinase activity was calculated at each concentration of compound. To determine the IC50 (concentration of compound required to inhibit 50% of the enzyme activity) data were fit to a plot of % inhibition vs Log10 compound concentration using a sigmoidal fit with a variable slope and fixing the maximum to 100% and the minimum to 0%. To determine the Ki values the Cheng-Prusoff equation was utilized (Ki=IC50/(1+[S]/Km).

ROCK 1 (Rho kinase 1) = ROCK 1 (Rho kinase 1) (Homo sapiens, UniProt Q13464); assay: In vitro inhibitory activity assay (ADP-Glo), Rho kinase 1; format: biochemical; conditions: Ki by Cheng-Prusoff from IC50; 10 μM ATP, 25° C.
Procedure: as §1, §2

Sequence of ROCK 2 (Rho kinase 2) (O75116 whole entry): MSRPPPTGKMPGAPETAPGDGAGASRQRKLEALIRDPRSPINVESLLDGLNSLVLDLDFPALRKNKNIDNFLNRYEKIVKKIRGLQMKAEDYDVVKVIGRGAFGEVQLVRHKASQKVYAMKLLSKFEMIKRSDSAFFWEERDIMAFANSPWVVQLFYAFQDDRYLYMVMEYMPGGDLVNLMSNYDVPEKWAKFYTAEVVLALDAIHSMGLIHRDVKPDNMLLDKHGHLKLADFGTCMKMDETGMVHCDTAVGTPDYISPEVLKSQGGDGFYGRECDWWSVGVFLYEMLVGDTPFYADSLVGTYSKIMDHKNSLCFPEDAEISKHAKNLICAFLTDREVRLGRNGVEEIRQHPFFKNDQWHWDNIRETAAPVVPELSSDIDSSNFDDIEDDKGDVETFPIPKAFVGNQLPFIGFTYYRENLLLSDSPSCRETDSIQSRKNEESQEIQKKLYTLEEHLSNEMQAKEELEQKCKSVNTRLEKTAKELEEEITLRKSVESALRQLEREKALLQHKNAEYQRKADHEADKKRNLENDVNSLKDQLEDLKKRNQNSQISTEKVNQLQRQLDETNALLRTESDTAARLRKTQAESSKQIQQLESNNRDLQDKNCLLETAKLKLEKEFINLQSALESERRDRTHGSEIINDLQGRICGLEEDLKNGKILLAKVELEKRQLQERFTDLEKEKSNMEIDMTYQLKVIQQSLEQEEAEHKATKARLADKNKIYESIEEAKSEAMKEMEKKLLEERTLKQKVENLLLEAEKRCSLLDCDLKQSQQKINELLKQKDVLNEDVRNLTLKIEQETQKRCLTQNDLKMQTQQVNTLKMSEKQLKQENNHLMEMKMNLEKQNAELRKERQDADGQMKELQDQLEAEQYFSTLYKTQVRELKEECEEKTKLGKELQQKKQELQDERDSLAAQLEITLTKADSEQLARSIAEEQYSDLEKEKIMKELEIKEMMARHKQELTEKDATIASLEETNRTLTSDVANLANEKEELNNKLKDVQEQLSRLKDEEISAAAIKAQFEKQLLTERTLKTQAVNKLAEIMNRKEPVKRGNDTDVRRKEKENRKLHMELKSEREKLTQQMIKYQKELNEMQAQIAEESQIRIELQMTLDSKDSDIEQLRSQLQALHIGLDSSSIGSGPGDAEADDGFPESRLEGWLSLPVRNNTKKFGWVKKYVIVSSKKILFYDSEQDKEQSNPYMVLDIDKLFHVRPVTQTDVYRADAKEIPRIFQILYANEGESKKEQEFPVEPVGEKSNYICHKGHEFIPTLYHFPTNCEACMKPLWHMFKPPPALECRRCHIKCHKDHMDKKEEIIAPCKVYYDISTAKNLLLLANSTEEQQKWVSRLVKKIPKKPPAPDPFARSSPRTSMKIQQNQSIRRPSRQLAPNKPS
Sequence of ROCK 1 (Rho kinase 1) (Q13464 whole entry): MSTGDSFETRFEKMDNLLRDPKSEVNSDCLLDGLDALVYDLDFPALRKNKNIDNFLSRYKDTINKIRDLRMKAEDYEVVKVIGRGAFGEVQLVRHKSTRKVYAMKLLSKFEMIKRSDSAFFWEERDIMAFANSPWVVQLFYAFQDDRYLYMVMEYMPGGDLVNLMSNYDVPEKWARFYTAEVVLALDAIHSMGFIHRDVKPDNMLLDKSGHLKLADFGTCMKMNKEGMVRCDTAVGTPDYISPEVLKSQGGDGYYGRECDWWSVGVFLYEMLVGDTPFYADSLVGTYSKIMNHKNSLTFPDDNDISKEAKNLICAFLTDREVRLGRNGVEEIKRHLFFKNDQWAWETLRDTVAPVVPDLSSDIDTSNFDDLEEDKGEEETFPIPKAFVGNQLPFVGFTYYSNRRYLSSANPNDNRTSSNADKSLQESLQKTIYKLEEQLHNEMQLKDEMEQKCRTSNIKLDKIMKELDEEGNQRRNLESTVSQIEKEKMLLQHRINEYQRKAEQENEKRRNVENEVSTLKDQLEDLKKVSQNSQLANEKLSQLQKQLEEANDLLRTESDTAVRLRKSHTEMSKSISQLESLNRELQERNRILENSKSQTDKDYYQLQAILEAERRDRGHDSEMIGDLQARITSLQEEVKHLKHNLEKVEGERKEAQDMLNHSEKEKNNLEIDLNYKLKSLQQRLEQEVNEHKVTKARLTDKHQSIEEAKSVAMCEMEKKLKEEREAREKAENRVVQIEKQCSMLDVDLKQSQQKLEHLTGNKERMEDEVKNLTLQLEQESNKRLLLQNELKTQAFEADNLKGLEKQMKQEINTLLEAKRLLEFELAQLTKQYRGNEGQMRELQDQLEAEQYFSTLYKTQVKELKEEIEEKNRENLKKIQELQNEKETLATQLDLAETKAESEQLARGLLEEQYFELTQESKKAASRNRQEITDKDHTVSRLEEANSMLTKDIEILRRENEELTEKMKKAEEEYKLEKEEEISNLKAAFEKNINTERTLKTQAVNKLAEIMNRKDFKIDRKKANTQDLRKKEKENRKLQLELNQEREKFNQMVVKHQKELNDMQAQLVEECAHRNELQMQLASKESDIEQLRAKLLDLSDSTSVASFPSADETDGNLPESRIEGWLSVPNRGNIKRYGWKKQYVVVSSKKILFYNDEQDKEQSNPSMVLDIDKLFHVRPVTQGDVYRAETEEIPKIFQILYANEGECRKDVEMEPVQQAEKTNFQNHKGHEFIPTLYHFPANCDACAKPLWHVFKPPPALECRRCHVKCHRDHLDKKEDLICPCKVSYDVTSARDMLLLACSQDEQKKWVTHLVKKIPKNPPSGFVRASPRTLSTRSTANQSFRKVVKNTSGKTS

Row | Structure (SMILES) | Ki (ROCK 2 (Rho kinase 2)) [nM] | Ki (ROCK 1 (Rho kinase 1)) [nM]
1 | CNC(=O)C1(NC(=O)[C@@H](N)Cc2ccc(Oc3ncnc4[nH]cc(C)c34)c(F)c2)CCCCC1 [Example 33, (S)-1-(2-amino-3-(3-fluoro-4-((5-methyl-7H-pyrrolo[2,3-d]pyrimidin-4-yl)oxy)phenyl)propanamido)-N-methylcyclohexanecarboxamide] | < 3 | < 3
2 | Cc1c[nH]c2ncnc(Oc3ccc(C[C@H](N)C(=O)NC4(CCO)CCCCC4)cc3F)c12 [Example 34, (S)-2-amino-3-(3-fluoro-4-((5-methyl-7H-pyrrolo[2,3-d]pyrimidin-4-yl)oxy)phenyl)-N-(1-(2-hydroxyethyl)cyclohexyl)propanamide] | < 3 | < 3
3 | Cc1c[nH]c2ncnc(Oc3ccc(C[C@H](N)C(=O)NC4(CO)CCCCC4)cc3F)c12 [Example 35, (S)-2-Amino-3-(3-fluoro-4-((5-methyl-7H-pyrrolo[2,3-d]pyrimidin-4-yl)oxy)phenyl)-N-(1-(hydroxymethyl)cyclohexyl)propanamide] | < 3 | < 3
4 | Cc1c[nH]c2ncnc(Oc3ccc(C[C@H](N)C(=O)NC4(CO)CCOCC4)cc3F)c12 [Example 36, (S)-2-Amino-3-(3-fluoro-4-((5-methyl-7H-pyrrolo[2,3-d]pyrimidin-4-yl)oxy)phenyl)-N-(4-(hydroxymethyl)tetrahydro-2H-pyran-4-yl)propanamide] | < 3 | 3 to 30
5 | Cc1c[nH]c2ncnc(Oc3ccc(C[C@H](N)C(=O)N4CCC(S(=O)(=O)c5ccc(F)cc5)CC4)cc3F)c12 [Example 37, (S)-2-Amino-3-(3-fluoro-4-((5-methyl-7H-pyrrolo[2,3-d]pyrimidin-4-yl)oxy)phenyl)-1-(4-((4-fluorophenyl)sulfonyl)piperidin-1-yl)propan-1-one] | < 3 | < 3
6 | Cc1c[nH]c2ncnc(Oc3ccc(C[C@H](N)C(=O)N4CC[C@H](S(=O)(=O)c5ccccc5)C4)cc3F)c12 [Example 38, (S)-2-Amino-3-(3-fluoro-4-((5-methyl-7H-pyrrolo[2,3-d]pyrimidin-4-yl)oxy)phenyl)-1-((S)-3-(phenylsulfonyl)pyrrolidin-1-yl)propan-1-one] | < 3 | < 3
7 | Cc1c[nH]c2ncnc(Oc3ccc(C[C@H](N)C(=O)NC4CCN(C5CC5)CC4)cc3F)c12 [Example 39, (S)-2-Amino-N-(1-cyclopropylpiperidin-4-yl)-3-(3-fluoro-4-((5-methyl-7H-pyrrolo[2,3-d]pyrimidin-4-yl)oxy)phenyl)propanamide] | < 3 | < 3
8 | CN1CCC(NC(=O)[C@@H](N)Cc2ccc(Oc3ccnc4[nH]cc(C5CC5)c34)c(F)c2)CC1 [Example 40, (S)-2-Amino-3-(4-((3-cyclopropyl-1H-pyrrolo[2,3-b]pyridin-4-yl)oxy)-3-fluorophenyl)-N-(1-methylpiperidin-4-yl)propanamide] | < 3 | < 3
9 | Cc1c[nH]c2ncnc(Oc3c(F)cc(C[C@H](N)C(=O)N4CCC(S(=O)(=O)c5ccccc5)CC4)cc3F)c12 [Example 41, (S)-2-Amino-3-(3,5-difluoro-4-((5-methyl-7H-pyrrolo[2,3-d]pyrimidin-4-yl)oxy)phenyl)-1-(4-(phenylsulfonyl)piperidin-1-yl)propan-1-one] | < 3 | < 3
10 | Cc1c[nH]c2nccc(Oc3c(F)cc(C[C@H](N)C(=O)N4CCC(S(=O)(=O)c5ccccc5)CC4)cc3F)c12 [Example 42, (S)-2-amino-3-(3,5-difluoro-4-((3-methyl-1H-pyrrolo[2,3-b]pyridin-4-yl)oxy)phenyl)-1-(4-(phenylsulfonyl)piperidin-1-yl)propan-1-one] | < 3 | < 3
11 | COCCNC(=O)C1(NC(=O)[C@@H](N)Cc2ccc(Oc3ccnc4[nH]cc(C)c34)c(F)c2)CCCCC1 [Example 43, (S)-1-(2-amino-3-(3-fluoro-4-((3-methyl-1H-pyrrolo[2,3-b]pyridin-4-yl)oxy)phenyl)propanamido)-N-(2-methoxyethyl)cyclohexanecarboxamide] | < 3 | < 3
12 | Cc1c[nH]c2nccc(Oc3ccc(C[C@H](N)C(=O)NC4(C(=O)NCCO)CCCCC4)cc3F)c12 [Example 44, (S)-1-(2-amino-3-(3-fluoro-4-((3-methyl-1H-pyrrolo[2,3-b]pyridin-4-yl)oxy)phenyl)propanamido)-N-(2-hydroxyethyl)cyclohexanecarboxamide] | < 3 | < 3
13 | Cc1c[nH]c2nccc(Oc3ccc(C[C@H](N)C(=O)N(C)C)cc3F)c12 [Example 45, (S)-2-amino-3-(3-fluoro-4-((3-methyl-1H-pyrrolo[2,3-b]pyridin-4-yl)oxy)phenyl)-N,N-dimethylpropanamide] | < 3 | 3 to 30
14 | CNC(=O)[C@@H](N)Cc1ccc(Oc2ccnc3[nH]cc(C)c23)c(F)c1 [Example 46, (S)-2-amino-3-(3-fluoro-4-((3-methyl-1H-pyrrolo[2,3-b]pyridin-4-yl)oxy)phenyl)-N-methylpropanamide] | < 3 | < 3
15 | Cc1c[nH]c2nccc(Oc3ccc(C[C@H](N)C(N)=O)cc3F)c12 [Example 47, (S)-2-amino-3-(3-fluoro-4-((3-methyl-1H-pyrrolo[2,3-b]pyridin-4-yl)oxy)phenyl)propanamide] | < 3 | < 3

Source: patent US20210284639A1, “TYROSINE AMIDE DERIVATIVES AS RHO- KINASE INHIBITORS” (CHIESI FARMACEUTICI S.p.A., priority 2018, published 2021)
